{"source": "patent US12435312B2", "about": "“Quantifying cell-derived changes in collagen synthesis, alignment, and mechanics in a 3D connective tissue model” (Brown University, priority 2022, dated 2025)", "key": {"[1]": {"test_system": "normal human dermal fibroblasts (ring-shaped tissue constructs)", "assay": "Tensile mechanical testing to failure of ring-shaped tissue constructs", "assay_type": "cell-based", "experimental": "(§1) Cell Source and Culture Conditions: Juvenile normal human dermal fibroblasts (jNHDF) were purchased from PromoCell (Heidelberg, Germany). Cells were expanded in Dulbecco's Modified Eagle's medium (DMEM) with high glucose, 1-glutamine, phenol red, and sodium pyruvate (11995065, Thermo Fisher Scientific, Waltham, MA) supplemented with 10% FBS and 1% penicillin/streptomycin at 10% CO2 and 37° C. Cells were passaged (P3-8) and expanded using a standard trypsin protocol. Cells were rinsed with 1× PBS (SH30256.FS, Thomas Scientific, Swedesboro, NJ), exposed to 0.05% trypsin in PBS for 4 min, quenched with serum containing media, centrifuged at 220g for 3 min, resuspended, counted, and plated at a density of 3.5-7.0×10^3 cells per cm^2. Ring-shaped tissue constructs (5 mm) were seeded at 3×10^5 cells per well in 1 mL of media exchanged every 2/3 days unless otherwise noted. For media composition experiments, tissues were cultured in serum-free DMEM supplemented with 0.1 mm 2-phospho-l-ascorbic acid trisodium salt (SigmaAldrich, St. Louis, MO), 50.0 μg mL^−1 I-proline (Thermo Fisher), 1% penicillin/streptomycin (SFM+), advanced DMEM (12491015) supplemented with 4 mm GlutaMax and 1% penicillin/streptomycin (SFMA), or a 50:50 mixture of the two (50:50 SFM+/SFMA).\nFabrication of Ring-Shaped Tissue Constructs: Ring-shaped molds were designed usingCADsoftware (SolidWorks Corporation, Concord, MA) and fabricated from stainless steel 316 L on a CNC lathe (Protolabs, Maple Plain, MN). The stainless steel parts were designed to fit into a single well of a standard 24 well plate. Ring-shaped agarose gels were cast by placing the stainless steel part into a well filled with 1.5 mL of molten, sterile 2% (w/v) agarose (BP160-500, Fisher Scientific, Hampton, NH) in 1× PBS, allowed to harden for 15 min, and removed. […] A lid mirroring a standard 24 well plate lid was fabricated out of aluminum with through holes above each well to permit the placement of all 24 stainless steel parts simultaneously. Gels were equilibrated in serum-free DMEM with 1% penicillin/streptomycin at 37° C., 10% CO2 for at least 24 h before use.\nDrug Treatment: For all dose-response experiments, ring constructs were allowed to form for 24 h prior to treatment. FBS (12483020, Life Technologies, Carlsbad, CA), Y-27632 (S1049, Selleck Chemicals, Houston, TX), TGF-β1 (7754-BH-25, […]), and SB-431542 (S1067, Selleck Chemicals) doses were freshly prepared from frozen aliquots and resuspended in 50:50 SFM+/SFMA medium prior to feeding 3× per week. Doses of FBS were prepared at 10%, 1.0%, and 0.1% [v/v] concentrations with a 0% control. Y-27632 and SB-431542 were reconstituted in dimethyl sulfoxide (DMSO) and resuspended at a final concentration of 10, 1.0, 0.1, and a 0 μm vehicle control with a DMSO final volume always less than 0.1%. TGF-β1 was reconstituted in 0.1% bovine serum albumin (BSA) in 4 mm HCl (RB04, […]) and prepared at a final concentration of 10, 2, 0.4, and 0 ng mL^−1 vehicle control.\nMechanical Testing: Ring-shaped microtissues were mechanically tested using custom designed grippers on a uniaxial tensile testing setup (Instron 5943, Norwood, MA) equipped with a 5N (5 mn resolution) load cell. Agarose molds were trimmed with a razor blade and top and sideview brightfield images were obtained on a Nikon Eclipse Ts2 microscope (Nikon, Tokyo, Japan) to determine the initial elliptical cross-sectional area (A0). Just prior to testing, tissue constructs were gently removed from the agarose mold using forceps and mounted between grippers which consisted of two horizontal cylindrical segments with a circular diameter of 3 mm fabricated from glass filled nylon (PA614-GS, ProtoLabs). Tissues were brought to a 5 mm initial grip-to-grip distance and tests were performed in PBS at 37° C. […]"}, "[2]": {"test_system": "normal human dermal fibroblasts (ring-shaped tissue constructs)", "assay": "Collagen quantification (pepsin-acid soluble collagen, sircol dye binding assay) of ring-shaped tissue constructs", "assay_type": "cell-based", "settings": "for effect on collagen content: p>0.05", "experimental": "as §1\nDrug Treatment: For all dose-response experiments, ring constructs were allowed to form for 24 h prior to treatment. […]\nCollagen Quantification: Tissues were homogenized with 2 mm glass beads for 2/3 min and solubilized in 0.1 mg mL^−1 pepsin in 0.5 m acetic acid at 4° C. for 48 h. Total pepsin-acid soluble collagen was quantified via sircol dye binding assay per kit instructions (S5000, Biocolor, United Kingdom). Absorbance was measured at 525 nm and collagen content was determined from a standard curve and adjusted to microgram equivalent of native pepsin-acid soluble collagen."}, "actomyosin network": {"test_system": "actomyosin network", "settings": "disruption of the actomyosin network; cited from earlier work"}, "[3]": {"settings": "highest inhibitory concentration (10.0 μM) in 50:50 media, day 7 and 14, p<0.05"}, "[4]": {"settings": "0.1, 1.0, 10.0 μM in 50:50 media from 24 h after seeding, 7 or 14 days, p>0.05"}, "[5]": {"settings": "10 ng mL^−1 TGF-β1 versus 10 μm SB431542, day 7"}}, "data": [{"molecule": "NC(=O)c1ccc(-c2nc(-c3ccc4c(c3)OCO4)c(-c3ccccn3)[nH]2)cc1", "note": "[SB-431542]", "values": [{"measurement": "effect on tissue stiffness", "setting": "[1]; [3]", "value": "weakest stiffness and strength"}, {"measurement": "effect on tissue strength", "setting": "[1]; [3]", "value": "weakest stiffness and strength"}, {"measurement": "effect on collagen content", "setting": "[2]; 0.1, 1.0, 10.0 μM in 50:50 media, any dose or time point", "value": "no effect"}]}, {"molecule": "C[C@@H](N)[C@H]1CC[C@H](C(=O)Nc2ccncc2)CC1", "note": "[Y-27632]", "values": [{"measurement": "effect on tissue stiffness", "setting": "[1]; [4]", "value": "did not significantly affect"}, {"measurement": "effect on tissue strength", "setting": "[1]; [4]", "value": "did not significantly affect"}, {"measurement": "effect on collagen content", "setting": "[2]; 0.1, 1.0, 10.0 μM in 50:50 media from 24 h after seeding, 7 or 14 days", "value": "did not significantly affect"}]}, {"molecule": "Cc1ccc2c(c1)C(=O)C1(O)CCN(c3ccccc3)C1=N2", "note": "(stereo not drawn) [blebbistatin]", "values": [{"measurement": "effect on development of mechanical properties", "setting": "actomyosin network", "value": "halts the development of mechanical properties"}]}, {"molecule": "TGF-β1: pleiotropic growth factor and proposed master mediator of fibrotic disorders", "values": [{"measurement": "increase in tissue stiffness, TGF-β1 stimulation versus inhibition with SB431542", "setting": "[1]; [5]", "value": 4.8, "unit": "fold"}, {"measurement": "increase in tissue strength, TGF-β1 stimulation versus inhibition with SB431542", "setting": "[1]; [5]", "value": 6.5, "unit": "fold"}, {"measurement": "effect on tissue mechanics (stiffness and strength)", "setting": "[1]; 0.4, 2.0, 10 ng mL^−1 in 50:50 media, day 7 and 14, p<0.05", "value": "increased tissue mechanics in a significant dose-dependent manner"}, {"measurement": "change in collagen content", "setting": "[2]; 0.4, 2.0, 10 ng mL^−1 in 50:50 media, day 7 and 14", "value": "not a concomitant change"}]}, {"molecule": "cytochalasin", "values": [{"measurement": "effect on development of mechanical properties", "setting": "actomyosin network", "value": "halts the development of mechanical properties"}]}]}
